PMC5571287 (Antimicrobial Agents and Chemotherapy, 2017)
Read-outs that look alike come from different tables or passages of the source.

How the values were obtained:
RSV A2 [1] = assay: CPE assay, RSV A2 in HEp-2 cells (resazurin); assay type: cell-based, respiratory syncytial virus; details: for IC50: read-out: RSV A2 IC50; for IC90: read-out: RSV A2 IC90
RSV B WST = assay: CPE assay, RSV B Washington in HEp-2 cells (resazurin); assay type: cell-based, respiratory syncytial virus
RSV A 1997/12-35 = assay: CPE 1, resazurin 384-well CPE assay in HEp-2; assay type: cell-based; details: human respiratory syncytial virus
Experimental: (§1) For known clinical strains (RSV A 1997/12-35, 2001/2-20, 200/3-4, and Memphis 37), a 384-well-format resazurin-based CPE assay was conducted.

RSV A 2000/3-4 = assay: CPE 1, resazurin 384-well CPE assay in HEp-2; assay type: cell-based; details: human respiratory syncytial virus
Experimental: as §1

RSV A 2001/2-20 = assay: CPE 1, resazurin 384-well CPE assay in HEp-2; assay type: cell-based; details: human respiratory syncytial virus
Experimental: as §1

RSV A Memphis 37c = assay: CPE 1, resazurin 384-well CPE assay in HEp-2; assay type: cell-based; details: human respiratory syncytial virus
Experimental: as §1

RSV A 1998/3-2 = assay: CPE 2, neutral red 96-well CPE assay in HEp-2; assay type: cell-based; details: human respiratory syncytial virus
Experimental: (§2) For RSV A 2001/3-12, 1998/3-2, and USU⃥v1225, CPE was induced in HEp-2 cells for 7 days and the plates were then stained with neutral red dye for approximately 2 h. The intracellular incorporated dye was extracted in 50:50 Sorensen citrate buffer-ethanol and the absorbance read on a spectrophotometer. The optical density (OD) of test wells was converted to percentage of cell and virus controls. […] The virus inocula were ∼63 50% cell culture infectious doses (CCID50) per well for 2001/3-12, ∼40 CCID50/well for 1998/3-2, and ∼32 CCID50/well for USU\v1225. This assay was conducted in Utah State University (Logan, UT).

RSV A 2001/3-12 = assay: CPE 2, neutral red 96-well CPE assay in HEp-2; assay type: cell-based; details: human respiratory syncytial virus
Experimental: as §2

RSV A USU\v1225 = assay: CPE 2, neutral red 96-well CPE assay in HEp-2; assay type: cell-based; details: human respiratory syncytial virus
Experimental: as §2

[2] = target: minigenome construct comprising the L protein, M2-1, N, and P of RSV A2 (Human respiratory syncytial virus A, UniProt P28887); assay: cell-based
[3] = Cell viability in HEp-2 cells (resazurin); details: human, HEp-2 cells
[4] = test system: PC786 escape mutant (Y1631H) of RSV A2; assay type: cell-based, respiratory syncytial virus; details: for IC50: read-out: PC786 escape mutant IC50, N=3, after 6th passage; for IC50 / IC90: CPE; for IC90: read-out: PC786 escape mutant IC90, N=3; for activity on CPE of the PC786 escape mutant, in words: vs wild type
[5] = test system: Wild type RSVA2 (vehicle control virus); assay: CPE assay, vehicle control (wild type) RSV A2 virus; details: for IC50: read-out: Wild type RSVA2 IC50; for IC90: read-out: Wild type RSVA2 IC90
RSV A2 [6] = assay: Time-of-addition assay and MOI dependency, CPE (methylene blue) in HEp-2; assay type: cell-based; details: human respiratory syncytial virus
RSV A2 [7] = assay: RSV F protein cell-based ELISA in BEAS-2B cells, washout / nonwashout; details: human respiratory syncytial virus, read-out: IC50, F protein expressed on cell surfaces
Experimental: Approximately 72 h after BEAS-2B cells were seeded in 96-well plates (at 4 × 10^4/ml; 100 μl/well), the medium in the plates was removed and replaced with 200 μl of fresh LHC-8 medium. […] For nonwashout plates, the compounds and DMSO (1 μl/well) were applied immediately after infection. On day 3 postinfection, supernatant was aspirated and the cells were fixed with 4% formaldehyde (100 μl in PBS solution) for 20 min at room temperature (RT), washed three times with wash buffer (WB) (200 μl; PBS containing 0.05% Tween 20), and incubated with blocking buffer (100 μl; 5% bovine serum albumin [BSA] in wash buffer) for 1 h. […] Abcam plc, Cambridge, UK). After a washing, cells were incubated with a horseradish peroxidase (HRP)-conjugated anti-mouse IgG antibody (50 μl/well; 1:2,000, Abcam) for 1 h. Tetramethylbenzidine (TMB) substrate (50 μl) was then added after two washings with WB and one with PBS, and the reaction was stopped by the addition of aqueous sulfuric acid (2 N; 50 μl/well). The resultant signal was determined colorimetrically (OD at 450 nm [OD450] with a reference wavelength of 655 nm) in a microplate reader (Multiskan FC; Thermo Fisher Scientific). Cells were then washed, and 0.5% crystal violet solution ([…]) was applied for 30 min. […] The measured F protein signals (OD450 − OD655 readings) were corrected for cell number (OD595 readings) by dividing the OD450–655 by the OD595 readings.

in vitro = details: human
[8] = human respiratory syncytial virus, HEp-2
[9] = CPE, HEp-2, n = 3, added with virus infection, ALS-8112 24 h prior
[10] = human respiratory syncytial virus

minigenome construct comprising the L protein, M2-1, N, and P of RSV A2, sequence (P28887 whole entry): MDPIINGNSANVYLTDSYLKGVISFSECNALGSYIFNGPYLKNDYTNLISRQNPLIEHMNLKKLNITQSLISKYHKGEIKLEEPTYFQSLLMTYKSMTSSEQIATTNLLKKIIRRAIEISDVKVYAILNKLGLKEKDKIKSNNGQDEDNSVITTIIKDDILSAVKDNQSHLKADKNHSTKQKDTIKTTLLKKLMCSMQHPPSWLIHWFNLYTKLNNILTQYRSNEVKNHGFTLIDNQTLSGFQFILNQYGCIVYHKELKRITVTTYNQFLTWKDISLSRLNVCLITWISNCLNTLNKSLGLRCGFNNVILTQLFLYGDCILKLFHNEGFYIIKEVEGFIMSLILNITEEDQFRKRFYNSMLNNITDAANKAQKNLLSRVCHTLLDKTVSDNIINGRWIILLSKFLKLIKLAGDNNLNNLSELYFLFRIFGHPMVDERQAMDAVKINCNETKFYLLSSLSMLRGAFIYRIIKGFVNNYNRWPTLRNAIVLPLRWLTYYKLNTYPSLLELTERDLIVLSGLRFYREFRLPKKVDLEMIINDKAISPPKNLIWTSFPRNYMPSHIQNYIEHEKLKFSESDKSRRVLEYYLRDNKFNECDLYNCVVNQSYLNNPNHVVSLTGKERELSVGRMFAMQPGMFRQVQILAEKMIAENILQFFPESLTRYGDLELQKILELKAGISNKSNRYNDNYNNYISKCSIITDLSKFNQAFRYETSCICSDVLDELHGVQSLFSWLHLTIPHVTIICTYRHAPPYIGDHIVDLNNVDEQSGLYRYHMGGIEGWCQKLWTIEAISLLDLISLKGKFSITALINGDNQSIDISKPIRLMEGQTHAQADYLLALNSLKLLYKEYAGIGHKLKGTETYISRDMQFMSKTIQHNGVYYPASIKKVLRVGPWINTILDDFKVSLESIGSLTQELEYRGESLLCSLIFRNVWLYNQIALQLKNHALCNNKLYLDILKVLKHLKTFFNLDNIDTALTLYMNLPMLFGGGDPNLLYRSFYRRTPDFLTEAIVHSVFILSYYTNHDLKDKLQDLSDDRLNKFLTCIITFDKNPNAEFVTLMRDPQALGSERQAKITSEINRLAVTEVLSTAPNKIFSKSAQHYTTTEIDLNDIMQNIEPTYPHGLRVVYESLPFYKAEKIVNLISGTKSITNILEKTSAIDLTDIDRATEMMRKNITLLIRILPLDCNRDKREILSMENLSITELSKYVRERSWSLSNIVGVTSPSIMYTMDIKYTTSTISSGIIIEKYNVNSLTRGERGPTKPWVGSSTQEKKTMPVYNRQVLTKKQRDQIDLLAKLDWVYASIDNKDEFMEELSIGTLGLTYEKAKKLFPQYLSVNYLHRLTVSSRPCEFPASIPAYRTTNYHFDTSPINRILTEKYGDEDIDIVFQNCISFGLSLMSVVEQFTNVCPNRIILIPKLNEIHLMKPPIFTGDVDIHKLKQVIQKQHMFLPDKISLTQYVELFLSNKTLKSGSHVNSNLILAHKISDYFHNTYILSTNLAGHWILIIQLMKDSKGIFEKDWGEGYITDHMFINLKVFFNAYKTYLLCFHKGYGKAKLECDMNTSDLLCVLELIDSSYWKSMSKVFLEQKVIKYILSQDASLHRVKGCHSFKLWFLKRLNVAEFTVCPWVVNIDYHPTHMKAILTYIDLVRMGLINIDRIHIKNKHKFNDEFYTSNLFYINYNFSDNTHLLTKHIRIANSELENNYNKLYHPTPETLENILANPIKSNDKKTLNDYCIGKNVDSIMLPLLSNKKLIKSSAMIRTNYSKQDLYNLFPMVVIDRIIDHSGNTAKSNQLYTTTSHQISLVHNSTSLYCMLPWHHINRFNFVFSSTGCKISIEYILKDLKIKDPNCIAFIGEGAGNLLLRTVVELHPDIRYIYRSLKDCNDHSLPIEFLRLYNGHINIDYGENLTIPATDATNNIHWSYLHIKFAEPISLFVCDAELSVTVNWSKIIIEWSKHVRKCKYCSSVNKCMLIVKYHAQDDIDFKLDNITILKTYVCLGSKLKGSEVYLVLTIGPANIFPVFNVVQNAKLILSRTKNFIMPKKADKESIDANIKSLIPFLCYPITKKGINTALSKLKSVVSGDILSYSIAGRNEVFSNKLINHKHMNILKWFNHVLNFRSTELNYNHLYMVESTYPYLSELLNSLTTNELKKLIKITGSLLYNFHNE
minigenome construct comprising the L protein, M2-1, N, and P of RSV A2, sequence (P03421 whole entry, further chain): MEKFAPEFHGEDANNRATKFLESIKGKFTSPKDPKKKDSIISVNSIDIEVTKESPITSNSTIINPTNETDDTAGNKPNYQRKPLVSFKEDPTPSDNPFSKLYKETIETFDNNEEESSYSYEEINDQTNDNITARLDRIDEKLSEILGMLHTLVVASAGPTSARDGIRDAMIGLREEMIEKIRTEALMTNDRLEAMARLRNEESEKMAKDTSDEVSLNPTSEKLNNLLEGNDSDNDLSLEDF

With `Nc1ccn([C@@H]2O[C@@](CO)(CCl)[C@@H](O)[C@H]2F)c(=O)n1` [ALS-8112, reference compound] the IC50 (RSV A2 [1]; [8]) was 455 ± 16 nM, the IC90 (RSV A2 [1]; [8]) was 1130 nM and the IC50 (RSV B WST; [8]) was 647 ± 44.2 nM. For the same compound, the IC90 (RSV B WST; [8]) was 2130 nM, the IC50 (RSV A 1997/12-35) was 693 nM and the IC50 (RSV A 2000/3-4) was 515 nM. It also gave an IC50 (RSV A 2001/2-20) of 768 nM, an IC50 (RSV A Memphis 37c) of 398 nM and an IC50 (RSV A 1998/3-2) of 1500 nM. For the same compound, the IC50 (RSV A 2001/3-12) was 3200 nM, the IC50 (RSV A USU\v1225) was 880 nM and the IC90 ([2]; luciferase, HEp-2, wild-type L protein) was 831 nM. It also gave a CC50 [3] greater than 341000 nM.

In the case of `COc1ccc(CCNCCCN2C(=O)c3c(cc(N)c4[nH]c(-c5ccc(C)c([N+](=O)[O-])c5)nc34)C(C)(C)C2=O)cc1OC` [BI compound D], the IC50 (RSV A2 [1]; [9]) is reported as 57.6 ± 1.53 nM, the IC90 (RSV A2 [1]; [9]) is reported as greater than 333 nM and the IC50 (RSV B WST; [9]) is reported as 47.8 ± 2.96 nM. The IC90 (RSV B WST; [9]) was greater than 1660 nM, the IC50 [2] was 55.3 nM and the IC90 [2] was 233 nM. For the same compound, the IC50 [4] was 87.4 nM, the IC90 [4] was 161 nM and the “activity on CPE of the PC786 escape mutant, in words” value [4] was “slightly reduced”. The IC50 ([5]; CPE, N=3, vehicle control virus) was 11.9 nM and the IC90 ([5]; CPE, N=3) was 79.9 nM.

Work on `Cc1cn2nc([C@@H]3CCCCN3C(=O)c3cc(Cl)ccc3NS(C)(=O)=O)cc2nc1N1CC[C@H](N)C1` [GS-5806, reference compound] yielded an IC50 (RSV A2 [1]; [8]) of 0.45 ± 0.018 nM, an IC90 (RSV A2 [1]; [8]) of 0.93 ± 0.098 nM and an IC50 (RSV B WST; [8]) of 0.17 ± 0.043 nM. The IC90 (RSV B WST; [8]) was greater than 126 nM, the IC50 (RSV A2 [6]; HEp-2, 24 h, MOI 0.02, n = 3, read-out: IC50 at treatment time 24 h postinoculation) was 1.62 nM and the IC50 (RSV A2 [6]; HEp-2, 24 h, MOI 0.1, n = 3, read-out: IC50 at treatment time 24 h postinoculation) was 2.05 nM. For the same compound, the IC50 (RSV A2 [6]; HEp-2, 24 h, MOI 1.0, n = 3, read-out: IC50 at treatment time 24 h postinoculation) was 11.7 nM, the IC50 (RSV A2 [6]; HEp-2, 48 h, read-out: IC50 at treatment time 48 h postinoculation, MOI 0.02, n = 3) was 6.46 nM and the IC50 (RSV A2 [6]; HEp-2, 48 h, read-out: IC50 at treatment time 48 h postinoculation, MOI 0.1, n = 3) was greater than 188 nM. It also gave an IC50 (RSV A2 [6]; HEp-2, 48 h, read-out: IC50 at treatment time 48 h postinoculation, MOI 1.0, n = 3) greater than 188 nM, an IC50 (RSV A2 [6]; HEp-2, 72 h, MOI 0.02, n = 3, read-out: IC50 at treatment time 72 h postinoculation) greater than 188 nM and an IC50 (RSV A2 [6]; HEp-2, 72 h, MOI 0.1, n = 3, read-out: IC50 at treatment time 72 h postinoculation) greater than 188 nM. For the same compound, the IC50 (RSV A2 [6]; HEp-2, 72 h, MOI 1.0, n = 3, read-out: IC50 at treatment time 72 h postinoculation) was greater than 188 nM, the IC50 (RSV A2 [6]; HEp-2, MOI 0.02, n = 3, CPE at 144 h, read-out: IC50 at treatment time 0 h postinoculation) was 0.38 nM and the IC50 (RSV A2 [6]; HEp-2, MOI 0.1, n = 3, CPE at 144 h, read-out: IC50 at treatment time 0 h postinoculation) was 0.57 nM. The IC50 (RSV A2 [6]; HEp-2, MOI 1.0, n = 3, CPE at 144 h, read-out: IC50 at treatment time 0 h postinoculation) was 1.05 nM, the IC50 [4] was less than 0.188 nM and the IC90 [4] was less than 0.188 nM. For the same compound, the “activity on CPE of the PC786 escape mutant, in words” value [4] was “remained susceptible”, the IC50 [5, 10] was 0.0018 nM and the IC90 [5, 10] was 0.0048 nM.

For `NC(=O)c1ncn([C@@H]2O[C@H](CO)[C@@H](O)[C@H]2O)n1` [Ribavirin], the IC50 (RSV A2 [1]; [8]) was greater than 16400 nM, the IC90 (RSV A2 [1]; [8]) was greater than 16400 nM and the IC50 (RSV B WST; [8]) was 10300 nM. The IC90 (RSV B WST; [8]) was greater than 16400 nM, the IC50 (RSV A2 [7]; 2 h exposure then 24-h washout before inoculation) was 253000 nM and the IC50 (RSV A2 [7]; nonwashout (sustained presence of drug)) was 6000 nM. For the same compound, the CC50 (in vitro) was 202000 nM.

In the case of `Cc1ccc(CCCO)c(NCc2ccc3nc(NCCCN4CCOCC4)n(Cc4nc(C)ccc4O)c3c2)c1` [TMC35315], the IC50 (RSV A2 [1]; [9]) is reported as 0.78 ± 0.0093 nM, the IC90 (RSV A2 [1]; [9]) is reported as 1.29 ± 0.015 nM and the IC50 (RSV B WST; [9]) is reported as 0.85 ± 0.017 nM. It also gave an IC90 (RSV B WST; [9]) of 2.63 ± 0.19 nM.
